Drawing on patent US9694016B2 (Novartis AG, priority 2013, dated 2017), this text covers IC50 for 31 compounds.

For one assay, the target named is b-Raf (V600E) (Homo sapiens (Human), UniProt P15056, V600E). Particulars: read-out: b-Raf IC-50; AlphaScreen, 60 min pre-incubation, 3 hours reaction.
Chain of b-Raf (V600E) (P15056 whole entry V600E): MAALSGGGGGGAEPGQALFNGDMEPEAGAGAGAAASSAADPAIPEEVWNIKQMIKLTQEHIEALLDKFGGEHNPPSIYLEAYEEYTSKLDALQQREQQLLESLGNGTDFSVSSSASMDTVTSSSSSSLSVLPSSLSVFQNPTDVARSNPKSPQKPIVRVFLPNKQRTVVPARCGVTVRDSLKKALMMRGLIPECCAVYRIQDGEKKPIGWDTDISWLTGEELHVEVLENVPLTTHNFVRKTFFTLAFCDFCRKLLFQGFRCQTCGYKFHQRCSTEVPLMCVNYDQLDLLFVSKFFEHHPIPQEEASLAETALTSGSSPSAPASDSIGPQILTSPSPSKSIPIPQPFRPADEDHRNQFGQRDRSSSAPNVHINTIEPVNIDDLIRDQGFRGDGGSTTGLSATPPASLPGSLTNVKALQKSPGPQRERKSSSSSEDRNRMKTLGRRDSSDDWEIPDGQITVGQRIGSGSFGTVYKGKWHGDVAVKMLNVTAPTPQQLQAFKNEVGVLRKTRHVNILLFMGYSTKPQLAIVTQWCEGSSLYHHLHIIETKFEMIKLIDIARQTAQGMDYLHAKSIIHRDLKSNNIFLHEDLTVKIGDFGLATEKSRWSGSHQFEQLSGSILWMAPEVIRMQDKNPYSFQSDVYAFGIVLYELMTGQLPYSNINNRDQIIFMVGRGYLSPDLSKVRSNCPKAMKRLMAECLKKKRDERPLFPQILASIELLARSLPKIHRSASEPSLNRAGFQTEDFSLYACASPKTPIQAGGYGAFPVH
Description: Sf9 cells co-expressing both proteins were lysed and subjected to immobilized nickel chromatography and eluted with Imidazole. A second column (StrepII binding column) was used and eluted with desthiobiotin. Protein Tags were removed using Prescission enzyme and the protein was further purified using a flowthrough step to remove tags.
Full length MEK1 with an inactivating K97R ATP binding site mutation is utilized as a RAF substrate. The MEK1 cDNA was subcloned with an N-terminal (his)6 tag into a vector for E. Coli expression. The MEK1 substrate was purified from E. Coli lysate by nickel affinity chromatography followed by anion exchange. The final MEK1 preparation was biotinylated (Pierce EZ-Link Sulfo-NHS-LC-Biotin) and concentrated.
Assay buffer: 50 mM Tris, pH 7.5, 15 mM MgCl2, 0.01% Bovine Serum Albumin (BSA), 1 mM dithiothreitol (DTT) Stop buffer: 60 mM ethylenediaminetetraacetic acid (EDTA), 0.01% Tween® 20
biotinylated Mek, kinase dead
384 well low volume assay plates (White Greiner® plates)
biotinylated Mek, Kinase dead approximately 10 nM
Pre-incubation time with compounds 60 minutes at room temperature
Reaction time 1 or 3 hours at room temperature
The plate was incubated for 60 minutes at room temperature.
The additions were carried out under dark conditions to protect the detection beads from light. A lid was placed on top of the plate and incubated for 1 hour at room temperature, then the luminescence was read on a PerkinElmer Envision instrument.
With `COc1ncc(-c2cc(NC(=O)c3ccnc(S(C)(=O)=O)c3)ccc2C)nc1N1CCOCC1` [Example 546, N-(3-(5-methoxy-6-morpholinopyrazin-2-yl)-4-methylphenyl)-2-(methylsulfonyl)isonicotinamide], the IC50 is 5 nM.

On to `CCNc1nc(-c2cc(NC(=O)c3cccc(C(F)F)c3)ccc2C)cc(N2CCOCC2)n1` [Example 698, 3-(difluoromethyl)-N-(3-(2-(ethylamino)-6-morpholinopyrimidin-4-yl)-4-methylphenyl)benzamide], for which the IC50 stood at 0.7 nM.

For `Cc1ccc(NC(=O)c2cccc(C(F)(F)F)c2)cc1-c1nc2c(c(N3CCOCC3)n1)CNCC2` [Example 835, N-(4-methyl-3-(4-morpholino-5,6,7,8-tetrahydropyrido[4,3-d]pyrimidin-2-yl)phenyl)-3-(trifluoromethyl)benzamide], the IC50 was 2.1 nM. For `CCNc1nc(-c2cc(NC(=O)c3ccnc(C(C)(C)C#N)c3)cnc2C)cc(N2CCOCC2)n1` [Example 718, 2-(2-cyanopropan-2-yl)-N-(5-(2-(ethylamino)-6-morpholinopyrimidin-4-yl)-6-methylpyridin-3-yl)isonicotinamide], the IC50 turned out to be 8.4 nM.

For the compound `Cc1ncc(C(=O)Nc2cccc(C(C)(C)O)c2)cc1-c1cc(N2CCOCC2)c(=O)n(C)c1` [Example 446, N-(3-(2-hydroxypropan-2-yl)phenyl)-1′,2-dimethyl-5′-morpholino-6′-oxo-1′,6′-dihydro-[3,3′-bipyridine]-5-carboxamide], the IC50 is 100 nM. With `CCOc1nnc(-c2cc(NC(=O)c3cnnc(C(F)(F)F)c3)cnc2C)cc1N1CCOCC1` [Example 614, N-(5-(6-ethoxy-5-morpholinopyridazin-3-yl)-6-methylpyridin-3-yl)-6-(trifluoromethyl)pyridazine-4-carboxamide], the IC50 was determined as 4.2 nM.

As for `Cc1ccc(NC(=O)c2cccc(C(F)F)c2)cc1-c1cc(N2CCOCC2)c(=O)n(C)n1` [Example 655, 3-(difluoromethyl)-N-(4-methyl-3-(1-methyl-5-morpholino-6-oxo-1,6-dihydropyridazin-3-yl)phenyl)benzamide], the IC50 is 2.2 nM.

For the compound `Cc1ccc(NC(=O)c2ccnc(C(C)(C)C#N)c2)cc1-c1cc(N2CCOCC2)nc(N2C(=O)OC[C@@H]2C)n1` [Example 782, (S)-2-(2-cyanopropan-2-yl)-N-(4-methyl-3-(2-(4-methyl-2-oxooxazolidin-3-yl)-6-morpholinopyrimidin-4-yl)phenyl)isonicotinamide], the IC50 was 22.3 nM.

For `Cc1ccc(C(=O)Nc2cccc(C(C)(C)O)c2)cc1-c1cc(N2CCOCC2)c(=O)n(C)c1` [Example 439, N-(3-(2-hydroxypropan-2-yl)phenyl)-4-methyl-3-(1-methyl-5-morpholino-6-oxo-1,6-dihydropyridin-3-yl)benzamide], the IC50 worked out at 6.3 nM.

`CCNc1nc(-c2cc(NC(=O)c3cnnc(C(C)(C)C#N)c3)ccc2C)cc(N2CCOCC2)n1` [Example 709, 6-(2-cyanopropan-2-yl)-N-(3-(2-(ethylamino)-6-morpholinopyrimidin-4-yl)-4-methylphenyl)pyridazine-4-carboxamide]: the IC50 amounted to 3.4 nM. Take `Cc1ncc(NC(=O)c2ccnc(C(C)(F)F)c2)cc1-c1cc(N2CCOCC2)n(C)c(=O)c1` [Example 510, 2-(1,1-difluoroethyl)-N-(1′,2-dimethyl-6′-morpholino-2′-oxo-1′,2′-dihydro-[3,4′-bipyridin]-5-yl)isonicotinamide]: the IC50 came to 7.5 nM.

Still in this assay, the particulars now being: read-out: b-Raf IC-50; AlphaScreen, 60 min pre-incubation, reaction 3 hours at room temperature.
`Cc1ncc(NC(=O)c2ccnc(C(C)(C)C#N)c2)cc1-c1cnc(OC(C)C)c(N2CCOCC2)c1` [Example 954, 2-(2-cyanopropan-2-yl)-N-(6′-isopropoxy-2-methyl-5′-morpholino-[3,3′-bipyridin]-5-yl)isonicotinamide]: the IC50 stood at 7.3 nM. Still for that read-out and setting: with `Cc1ccc(NC(=O)c2cnnc(C3(C#N)CC3)c2)cc1-c1cc(N2CCOCC2)c(=O)n(C)c1` [Example 902, 6-(1-cyanocyclopropyl)-N-(4-methyl-3-(1-methyl-5-morpholino-6-oxo-1,6-dihydropyridin-3-yl)phenyl)pyridazine-4-carboxamide] the figure was 3.37 nM; with `Cc1ncc(NC(=O)c2cncc(C(F)(F)F)c2)cc1-c1cnc(OCC(F)F)c(N2CCOCC2)c1` [Example 935, N-(6′-(2,2-difluoroethoxy)-2-methyl-5′-morpholino-[3,3′-bipyridin]-5-yl)-5-(trifluoromethyl)nicotinamide], 2.04 nM.

Take `Cc1ncc(NC(=O)c2ccnc(C3(C#N)CC3)c2)cc1-c1cc(N2CCOCC2)nc(N2CC(C)(O)C2)c1` [Example 1109, 2-(1-cyanocyclopropyl)-N-(2′-(3-hydroxy-3-methylazetidin-1-yl)-2-methyl-6′-morpholino-[3,4′-bipyridin]-5-yl)isonicotinamide]: the IC50 was determined as 8.02 nM. Consider `Cc1ccc(NC(=O)c2cccc(C(F)(F)F)c2)cc1-c1cc(NC(=O)C(C)O)nc(N2CCOCC2)c1` (stereo not shown) [Example 1066, N-(3-(2-(2-hydroxypropanamido)-6-morpholinopyridin-4-yl)-4-methylphenyl)-3-(trifluoromethyl)benzamide], for which the IC50 was found to be 0.58 nM. Same read-out and setting: with `Cc1ccc(NC(=O)c2cc(C(C)(C)O)ccn2)cc1-c1cnc(OC(C)C)c(N2CCOCC2)c1` [Example 949, 4-(2-hydroxypropan-2-yl)-N-(3-(6-isopropoxy-5-morpholinopyridin-3-yl)-4-methylphenyl)picolinamide] the figure was 3.63 nM. The same measure, in the same setting: then `CCn1cc(C(=O)Nc2cnc(C)c(-c3cc(N4CCOCC4)nc(N4CC(O)C4)c3)c2)cc(C(F)(F)F)c1=O` [Example 1086, 1-ethyl-N-(2′-(3-hydroxyazetidin-1-yl)-2-methyl-6′-morpholino-[3,4′-bipyridin]-5-yl)-6-oxo-5-(trifluoromethyl)-1,6-dihydropyridine-3-carboxamide], with 20.7 nM. Take `Cc1ncc(NC(=O)c2ccc(C(O)CO)c(C(F)(F)F)c2)cc1-c1cc(N2CCOCC2)c2nccn2n1` (stereo not shown) [Example 873, 4-(1,2-dihydroxyethyl)-N-(6-methyl-5-(8-morpholinoimidazo[1,2-b]pyridazin-6-yl)pyridin-3-yl)-3-(trifluoromethyl)benzamide]: the IC50 amounted to 2.8 nM.

In the case of `Cc1ncc(NC(=O)c2cccc(C(F)(F)F)c2)cc1-c1cc(N2CCOCC2)c2nccn2c1` [Example 884, N-(6-methyl-5-(8-morpholinoimidazo[1,2-a]pyridin-6-yl)pyridin-3-yl)-3-(trifluoromethyl)benzamide], the IC50 is 19.7 nM.

In the case of `Cc1ccc(NC(=O)c2cc(C(C)(C)C#N)ccn2)cc1-c1cnc(OC(C)C)c(N2CCOCC2)c1` [Example 948, 4-(2-cyanopropan-2-yl)-N-(3-(6-isopropoxy-5-morpholinopyridin-3-yl)-4-methylphenyl)picolinamide], the IC50 turned out to be 2.33 nM. `Cc1ncc(NC(=O)c2cnnc(C3CC3)c2)cc1-c1cc(N2CCOCC2)nc(N2CC(C)(O)C2)c1` [Example 1101, 6-cyclopropyl-N-(2′-(3-hydroxy-3-methylazetidin-1-yl)-2-methyl-6′-morpholino-[3,4′-bipyridin]-5-yl)pyridazine-4-carboxamide]: the IC50 was 13.7 nM.

The same assay, now with this note: read-out: b-Raf IC-50; Table 2; AlphaScreen, 3 hours reaction.
Take `COc1ncc(-c2cc(NC(=O)c3ccnc(C(C)(F)F)c3)cnc2Cl)cc1N1CCOCC1` [Example 261, N-(2-chloro-6′-methoxy-5′-morpholino-[3,3′-bipyridin]-5-yl)-2-(1,1-difluoroethyl)isonicotinamide]: the IC50 is 1.8 nM.

For `Cc1nn(C(C)C)cc1C(=O)Nc1cnc(C)c(-c2cc(N3CCOCC3)c(=O)n(C)c2)c1` [Example 375, N-(1′,2-dimethyl-5′-morpholino-6′-oxo-1′,6′-dihydro-[3,3′-bipyridin]-5-yl)-1-isopropyl-3-methyl-1H-pyrazole-4-carboxamide], the IC50 was found to be 200 nM.

For the compound `Cn1cc(-c2cc(NC(=O)c3cccc(C(F)F)c3)ccc2C#N)cc(N2CCOCC2)c1=O` [Example 420, N-(4-cyano-3-(1-methyl-5-morpholino-6-oxo-1,6-dihydropyridin-3-yl)phenyl)-3-(difluoromethyl)benzamide], the IC50 amounted to 3600 nM.

As to `Cc1ncc(N(C)C(=O)c2cccc(C(F)(F)F)c2)cc1-c1cnc(OC2CCOCC2)c(N2CCOCC2)c1` [Example 328, N-methyl-N-(2-methyl-5′-morpholino-6′-((tetrahydro-2H-pyran-4-yl)oxy)-[3,3′-bipyridin]-5-yl)-3-(trifluoromethyl)benzamide], the IC50 stood at 62.4 nM.

For `CCOc1ncc(-c2cc(NC(=O)c3ccnc(C(F)F)c3)ccc2C)cc1N1CCOCC1` [Example 237, 2-(difluoromethyl)-N-(3-(6-ethoxy-5-morpholinopyridin-3-yl)-4-methylphenyl)isonicotinamide], the IC50 was 0.4 nM. Consider `Cc1ccc(NC(=O)c2cnnc(C(C)(C)C#N)c2)cc1-c1cc(N2CCOCC2)c(=O)n(C)c1` [Example 360, 6-(2-cyanopropan-2-yl)-N-(4-methyl-3-(1-methyl-5-morpholino-6-oxo-1,6-dihydropyridin-3-yl)phenyl)pyridazine-4-carboxamide], for which the IC50 came to 6 nM. Turning to `Cc1ncc(NC(=O)c2ccnc(C(C)(C)C#N)c2)cc1-c1cnc(OC2CCOCC2)c(N2CCOCC2)c1` [Example 272, 2-(2-cyanopropan-2-yl)-N-(2-methyl-5′-morpholino-6′-((tetrahydro-2H-pyran-4-yl)oxy)-[3,3′-bipyridin]-5-yl)isonicotinamide], the IC50 is 6.3 nM. Still for that read-out and setting: with `CCn1cc(C(=O)Nc2cnc(C)c(-c3cc(N4CCOCC4)c(=O)n(C)c3)c2)c(C)n1` [Example 373, N-(1′,2-dimethyl-5′-morpholino-6′-oxo-1′,6′-dihydro-[3,3′-bipyridin]-5-yl)-1-ethyl-3-methyl-1H-pyrazole-4-carboxamide] the figure was 1100 nM; with `Cc1ncc(NC(=O)c2cc(C3CC3)on2)cc1-c1cc(N2CCOCC2)c(=O)n(C)c1` [Example 380, 5-cyclopropyl-N-(1′,2-dimethyl-5′-morpholino-6′-oxo-1′,6′-dihydro-[3,3′-bipyridin]-5-yl)isoxazole-3-carboxamide], 12.5 nM.
